Assay results: US20240391954A1, “MC4R AGONIST PEPTIDES” (The Regents of the University of Michigan, priority 2021, published 2024)
Positions of bridges follow the written chain, without caps; N, C: chain ends. Non-standard residues stand in square brackets, D forms with d. Residues, ends and D or L forms follow the SMILES beside them. 1Nal = N[C@@H](Cc1cccc2ccccc12)C(=O)O; NMeR = CN[C@@H](CCCNC(=N)N)C(=O)O; Cit = NC(=O)NCCC[C@H](N)C(=O)O; Nle = CCCC[C@H](N)C(=O)O; Aib = CC(C)(N)C(=O)O

What was measured:
Type in all cases: cell-based
human MC3R = target: T1, human MC3R (Homo sapiens, UniProt P41968); experiment: split-luciferase cAMP sensor assay, agonist mode (measurement window 1), hMC3R; conditions: for EC50: HEK-293 cells stably expressing hMC3R, read-out: MC3R cAMP EC50; for EC50 / Emax: agonist mode; for MC4R selectivity vs MC3R: MC4R versus MC3R; for Emax: % maximal activation, read-out: MC3R cAMP % max activation
T1 construct: expressed in transfected cells; host or cells: HEK-293 cells stably expressing the GScAMP22F split-luciferase cAMP sensor (parent reporter line from Promega); MC3R clone generated in-house, G418 selection
T1 sequence (P41968 whole entry): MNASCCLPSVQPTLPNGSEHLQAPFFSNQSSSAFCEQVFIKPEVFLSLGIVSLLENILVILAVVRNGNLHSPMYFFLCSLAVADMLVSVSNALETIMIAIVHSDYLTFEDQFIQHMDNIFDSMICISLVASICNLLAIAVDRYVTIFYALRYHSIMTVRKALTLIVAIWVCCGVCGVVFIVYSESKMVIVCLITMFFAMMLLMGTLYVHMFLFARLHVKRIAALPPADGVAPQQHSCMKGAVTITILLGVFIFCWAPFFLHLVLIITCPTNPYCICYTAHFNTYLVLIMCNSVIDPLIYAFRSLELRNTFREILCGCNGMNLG
How it was run: (§1)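 Live stable cell lines carrying receptor plus GloSensor cAMP22f split-luciferase, loaded with 4% D-luciferin in serum-free medium (~1% serum estimated during assay). Luminescence recorded during in-line peptide addition; direct agonist effect read in window 1, with 20 μM forskolin as normalization reference. EC50 from four-parameter sigmoid fit.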

human MC4R = target: T2, human MC4R (Homo sapiens, UniProt P32245); experiment: split-luciferase cAMP sensor assay, agonist mode (measurement window 1), hMC4R; conditions: agonist mode; for Emax: % maximal activation, read-out: MC4R cAMP % max activation; for EC50: HEK-293 cells stably expressing hMC4R, read-out: MC4R cAMP EC50
T2 construct: host or cells: HEK-293 cells stably expressing the GScAMP22F split-luciferase cAMP sensor and hMC4R, G418 selection
T2 sequence (P32245 whole entry): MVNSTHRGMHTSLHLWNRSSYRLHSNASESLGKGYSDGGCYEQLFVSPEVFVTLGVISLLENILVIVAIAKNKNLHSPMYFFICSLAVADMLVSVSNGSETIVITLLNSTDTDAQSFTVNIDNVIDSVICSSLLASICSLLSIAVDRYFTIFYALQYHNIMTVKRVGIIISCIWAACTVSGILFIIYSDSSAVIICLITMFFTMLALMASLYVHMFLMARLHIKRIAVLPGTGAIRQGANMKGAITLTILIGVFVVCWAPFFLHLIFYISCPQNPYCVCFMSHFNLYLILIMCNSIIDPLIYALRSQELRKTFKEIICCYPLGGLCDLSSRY
How it was run: as §1

human MC1R = target: T3, human MC1R (Homo sapiens, UniProt Q01726); experiment: split-luciferase cAMP sensor assay, agonist mode, hMC1R; conditions: MC4R versus MC1R
T3 construct: expressed in transfected cells; host or cells: HEK-293 cells stably expressing hMC1R and the GScAMP22F cAMP sensor
T3 sequence (Q01726 whole entry): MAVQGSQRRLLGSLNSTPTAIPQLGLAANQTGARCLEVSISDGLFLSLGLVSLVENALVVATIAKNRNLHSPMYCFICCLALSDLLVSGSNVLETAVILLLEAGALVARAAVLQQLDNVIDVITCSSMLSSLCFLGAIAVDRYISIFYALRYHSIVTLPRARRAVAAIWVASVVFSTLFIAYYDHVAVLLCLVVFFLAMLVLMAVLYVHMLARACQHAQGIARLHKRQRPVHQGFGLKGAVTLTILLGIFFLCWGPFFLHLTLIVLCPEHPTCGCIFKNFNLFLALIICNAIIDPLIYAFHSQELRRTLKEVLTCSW
Procedure: FIG. 4A-B. (A) Pharmacological properties of exemplary MC4R agonist peptides, including those with improved efficacy in the MC4R+/− mouse (CTX-1211, CTX-1227, and CTX-1228). Concentration-response agonist curves for peptides indicated at the human MC4R (red), human MC3R (blue), human MC5R (green), and human MC1R (black) were determined by a split-luciferase cAMP sensor dynamic assay in HEK-293 cells stably expressing the hMC1R, hMC3R, hMC4R, or hMC5R and the GScAMP22F cAMP sensor. Each data point represents the mean±SEM of two experiments with three replicates each per experiment. Data is normalized to the ECmax of α-MSH. (B) Same as above, for peptides representing reduced activity at the hMC1R. Inset tables indicate EC50 values for the ligand indicated for each receptor.
The assay for the determination of the cAMP response in live cells was described previously. (Yu et al., 2020, Science 368, 428-433; incorporated by reference in its entirety). Cells were seeded at a density of 20,000 cells per well using 384-well poly-D lysine-coated, clear bottom, and black-wall assay plates (Corning Inc. Corning, NJ). Cells were allowed to attach to the plates for 18 to 24 h after which growth media was removed and 20 μl of 4% D-luciferin (Promega) in CO2 independent, serum-free medium (Thermo Fisher Scientific) was added to each well. The luciferase substrate was allowed to permeate the cells for 120 min at 37° C. Intracellular cAMP levels were measured using an FDSS 7000EX Functional Drug Screening System (Hamamatsu Photonics, Hamamatsu, Japan) in the Center for Chemical Genomics at the Life Sciences Institute. This instrument allowed the in-line addition of test-peptides and receptor agonists while simultaneously acquiring the luminescence signal from live cells. Assay read steps were set as follows: baseline acquisition of 2 min, the addition of 10 μl of varying 3× concentrations of test-peptides or vehicle followed by 11 min measurement (measurement window 1), and 10 μl addition of 4× concentration of the endogenous melanocortin agonist α-MSH (Bachem, Bubendorf, Switzerland) followed by an additional 11 min response measurement (measurement window 2). The resulting final concentration of α-MSH was close to the respective receptor EC90 dose for each receptor. Intraplate concentration response curves for α-MSH and SHU-9119 (Phoenix Pharmaceuticals, Burlingame CA) were included as reference controls. A submaximal forskolin (20 μM) concentration was also included to serve as a normalization reference to account for cell number variations and differences in assay transducer efficiency between cell lines.
With this set up it was possible to evaluate the direct effect of the test-peptides on the MC3R and MC4R cell lines during measurement window 1, while the antagonist profile in the presence of EC90 α-MSH was determined on measurement window 2. For data analysis baseline luminescence (i.e. the maximum luminescence signal from the initial 0 to 2 min window) was subtracted from the maximum luminescence obtained during measurement window 1 (2 to 13 min) and measurement window 2 (13 to 24 min) to yield the test-peptide elicited responses. EC50 or IC50 potency values were determined by non-linear regression by fitting the data to a sigmoid four-parameter variable slope model using the GraphPad Prism version 8.4 software package (San Diego CA).

| Compound | EC50 (human MC3R) | MC4R selectivity vs MC3R (human MC3R) | Emax (human MC4R) | MC4R selectivity vs MC1R (human MC1R) | Emax (human MC3R) | EC50 (human MC4R) |
| --- | --- | --- | --- | --- | --- | --- |
| COc1ccc(C[C@H]2NC(=O)[C@H](CCCNC(N)=O)NC(=O)C(C)(C)NC(=O)[C@@H](NC(=O)[C@H](CCCNC(=N)N)NC(C)=O)CSSC[C@@H](C(N)=O)NC(=O)[C@H](Cc3ccccc3)NC(=O)[C@H](CCCNC(=N)N)NC2=O)cc1 [CTX-1299, Arg-cyclo(Cys-Aib-Cit-D-Tyr(4-OMe)-Arg-Phe-Cys)] (Ac-RC[Aib][Cit][dY](Me)RFC-NH2; disulfide 2-8) | > 10000 nM | >154 | 78% | 3.66 |  |  |
| C[C@H]1NC(=O)CSC[C@@H](C(N)=O)NC(=O)[C@H](Cc2c[nH]c3ccccc23)NC(=O)[C@H](CCCNC(=N)N)NC(=O)[C@@H](Cc2ccccc2)NC(=O)[C@H](Cc2c[nH]cn2)NC1=O [CTX-1202, Thioether-cyclo((D-Ala-His-D-Phe-Arg-Trp-Cys)] |  | 76 | 104% | 0.89 | 101% |  |
| CC[C@H]1NC(=O)[C@@H](NC(=O)[C@H](CCCNC(=N)N)NC(C)=O)CSSC[C@@H](C(N)=O)NC(=O)[C@H](Cc2c[nH]c3ccccc23)NC(=O)[C@H](CCCNC(=N)N)NC(=O)[C@@H](Cc2ccccc2)NC(=O)[C@H](Cc2c[nH]cn2)NC1=O [CTX-1295, Arg-cyclo(Cys-D-Abu-His-D-Phe-Arg-Trp-Cys)] | 1.6 nM | 6.31 | 102% | 2.79 | 97% | 0.25 nM |
| CC(=O)N[C@H]1CSSC[C@@H](C(N)=O)NC(=O)[C@H](Cc2c[nH]c3ccccc23)NC(=O)[C@H](CCCNC(=N)N)NC(=O)[C@@H](Cc2ccccc2)NC(=O)[C@H](Cc2c[nH]cn2)NC(=O)C(C)(C)NC1=O [CTX-1631, cyclo(Cys-Aib-His-D-Phe-Arg-Trp-Cys)] |  | 6.91 | 107% | 4.09 | 100% |  |
| CC(=O)N[C@H]1CSSC[C@@H](C(N)=O)NC(=O)[C@H](Cc2ccccc2)NC(=O)[C@H](CCCNC(=N)N)NC(=O)[C@@H](Cc2ccccc2)NC(=O)[C@H](CCCNC(=N)N)NC(=O)CNC1=O [CTX-1638, cyclo(Cys-Gly-Arg-D-Phe-Arg-Phe-Cys)] (Ac-CGR[dF]RFC-NH2; disulfide 1-7) |  | 1.66 | 110% | 1.04 | 75% |  |
| CCCC[C@H](NC(=O)[C@H](CCCNC(=N)N)NC(C)=O)C(=O)N[C@H]1CSSC[C@@H](C(N)=O)NC(=O)[C@H](Cc2c[nH]c3ccccc23)NC(=O)[C@H](CCCNC(=N)N)NC(=O)[C@H](Cc2cccc3ccccc23)NC(=O)[C@H](Cc2c[nH]cn2)NC1=O [CTX-1610, Arg-Nle-cyclo(Cys-His-Nal(1′)-Arg-Trp-Cys)] (Ac-R[Nle]CH[1Nal]RWC-NH2; disulfide 3-8) |  | 0.66 | 90% | 0.03 | 67% |  |
| CC(=O)N[C@@H](CCCNC(=N)N)C(=O)N[C@H]1CSSC[C@@H](C(N)=O)NC(=O)[C@@H](Cc2c[nH]c3ccccc23)NC(=O)[C@H](CCCNC(=N)N)N(C)C(=O)[C@@H](Cc2ccccc2)NC(=O)[C@H](CCCNC(=N)N)NC(=O)[C@@H](C)NC1=O [CTX-1284, Arg-cyclo(Cys-D-Ala-Arg-D-Phe-N-Me-Arg-D-Trp-Cys)] (Ac-RC[dA]R[dF][NMeR][dW]C-NH2; disulfide 2-8) | 1040 nM | 8.11 | 91% | 0.15 | 45% |  |
| C[C@H]1NC(=O)CSC[C@@H](C(N)=O)NC(=O)[C@H](Cc2c[nH]c3ccccc23)NC(=O)[C@H](CCCNC(=N)N)NC(=O)[C@@H](Cc2ccccc2)NC(=O)[C@H](CCCNC(=N)N)NC1=O [CTX-1642, Thioether-cyclo(D-Ala-Arg-D-Phe-Arg-Trp-Cys)] ({CH2CO}-[dA]R[dF]RWC-NH2; thioether N-6) |  | 29 | 107% | 13 | 90% | 2.9 nM |
| CC(=O)N[C@@H](CCCNC(=N)N)C(=O)N[C@H]1CSSC[C@@H](C(N)=O)NC(=O)[C@@H](Cc2c[nH]c3ccccc23)NC(=O)[C@H](CCCNC(=N)N)NC(=O)[C@@H](Cc2ccccc2)NC(=O)[C@H](CCCNC(N)=O)NC(=O)C(C)(C)NC1=O [CTX-1290, Arg-cyclo(Cys-Aib-Cit-D-Phe-Arg-D-Trp-Cys)] (Ac-RC[Aib][Cit][dF]R[dW]C-NH2; disulfide 2-8) | 1040 nM | 9.23 | 88% | 10 | 20% |  |
| CC1(C)NC(=O)CSC[C@@H](C(N)=O)NC(=O)[C@H](Cc2ccccc2)NC(=O)[C@H](CCCNC(=N)N)NC(=O)[C@@H](Cc2ccccc2)NC(=O)[C@H](CCCNC(=N)N)NC1=O [CTX-1651, Thioether-cyclo(Aib-Arg-D-Phe-Arg-Phe-Cys)] ({CH2CO}-[Aib]R[dF]RFC-NH2; thioether N-6) | > 10000 nM | >8 | 92% | 1.45 |  |  |
| CC(=O)N[C@H]1CSSC[C@@H](C(N)=O)NC(=O)[C@H](Cc2ccccc2)NC(=O)[C@H](CCCNC(=N)N)NC(=O)[C@@H](Cc2ccccc2)NC(=O)[C@H](CCCNC(=N)N)NC(=O)C(C)(C)NC1=O [CTX-1635, cyclo(Cys-Aib-Arg-D-Phe-Arg-Phe-Cys)] (Ac-C[Aib]R[dF]RFC-NH2; disulfide 1-7 (inferred)) |  | 5.7 | 112% | 1.19 | 70% |  |
| CCCC[C@H](NC(=O)[C@H](CCCNC(=N)N)NC(C)=O)C(=O)N[C@H]1CSSC[C@@H](C(N)=O)NC(=O)[C@H](Cc2ccccc2)NC(=O)[C@H](CCCNC(=N)N)NC(=O)[C@@H](Cc2ccc(OC)cc2)NC(=O)[C@H](CCCNC(=N)N)NC1=O [CTX-1624, Arg-Nle-cyclo(Cys-Arg-D-Tyr(4-OMe)-Arg-Phe-Cys)] (Ac-R[Nle]CR[dY](Me)RFC-NH2; disulfide 3-8 (inferred)) |  | 0.47 | 83% | 0.15 | 66% | 12 nM |
| CC(=O)N[C@H]1CSSC[C@@H](C(N)=O)NC(=O)[C@H](Cc2ccccc2)NC(=O)[C@H](CCCNC(=N)N)NC(=O)[C@@H](Cc2ccccc2)NC(=O)[C@H](CCCNC(N)=O)NC(=O)C(C)(C)NC1=O [CTX-1636, cyclo(Cys-Aib-Cit-D-Phe-Arg-Phe-Cys)] (Ac-C[Aib][Cit][dF]RFC-NH2; disulfide 1-7 (inferred)) |  | 9.44 | 102% | >12 | 44% |  |
| CC1(C)NC(=O)CSC[C@@H](C(N)=O)NC(=O)[C@H](Cc2ccccc2)NC(=O)[C@H](CCCNC(=N)N)NC(=O)[C@@H](Cc2ccccc2)NC(=O)[C@H](Cc2c[nH]cn2)NC1=O [CTX-1650, Thioether-cyclo(Aib-His-D-Phe-Arg-Phe-Cys)] ({CH2CO}-[Aib]H[dF]RFC-NH2; thioether N-6) |  | 53 | 113% | 0.95 | 125% | 288 nM |
